The values below come from patent US20130059890A1, “ANTIVIRAL AGENTS” (SYDNEY WEST AREA HEALTH SERVICE, priority 2009, published 2013).

The structures appear in SMILES notation. Entries after “also recorded” stand apart in the source; their conditions may differ.

For this assay, the system named is HCV (JFH-1) infected Huh7 cells. The note with it: 24 hours; for effect on HCV replication (in words): HCV RNA by qPCR (FIG. 9; discussion). An excerpt:
Huh7 cells were infected with the JFH-1 strain of hepatitis C virus (genotype 2a) as previously described in Wakita et al., (2005), “Production of infectious hepatitis C virus in tissue culture from a cloned viral genome”, Nat. Med., 11(7):791-796). Briefly, pJFH-1 plasmids encoding full length HCV genome (provided by T. Wakita, National Institute of Infectious Diseases, Japan) were linearized and HCV RNA was synthesized using T7 RiboMAX™ Express Large Scale RNA Production System (Promega). 10 μg of HCV RNA was added to 1.6×10^6 Huh7 cells suspended in 800 ul PBS buffer. A Bio-Rad Gene Pulser system was used to deliver a single pulse at 0.34 kV, 975 μF, using 4 mm electroporation cuvettes. Cells were cultured at 37° C. in a 5% CO2 atmosphere in Dulbecco's modified Eagle's medium (DMEM) supplemented with 10% fetal bovine serum for 10 days (Gibco).
HCV RNA was amplified from infected Huh7 cells using specific primers targeting the 5′ noncoding region under the following conditions: 10 min at 95° C.; 40 cycles of 94° C. for 15 s and 60° C. for 45 s. Samples were analysed in triplicate and relative expression of HCV RNA normalised to 18s.
JFH-1 infected Huh7 cells cultured in 6 well plates were treated with HU-210 (100 nM), either alone or with increasing concentrations of the antagonists NlDA-41020 or (S)-SLV-319 (1 nM, 10 nM, 100 nM and 1 μM). Untreated cells and cells treated with CB1 antagonist alone (100 nM) were used as controls. After 24 hours cells were harvested, total RNA extracted, and HCV RNA measured by qPCR. Three replicate experiments were performed for each set of conditions and mean values calculated.
In general terms: In qPCR the cycle at which signal appears reflects the starting amount.

Consider `CN=C(NS(=O)(=O)c1ccc(Cl)cc1)N1C[C@H](c2ccccc2)C(c2ccc(Cl)cc2)=N1` [(S)-SLV-319, 3-(4-chlorophenyl)-N-[(4-chlorophenyl)sulfonyl]-4,5-dihydro-N′-methyl-4-phenyl-1H-pyrazole-1-carboximidamide], for which the “effect on HCV replication (in words)” value is recorded as “inhibit HCV replication in a dose-dependent manner; also recorded: inhibited”.
In the case of `CCCCCCC(C)(C)c1cc(O)c2c(c1)OC(C)(C)[C@@H]1CC=C(CO)C[C@@H]21` [HU-210], the “effect on HCV replication (in words)” value is given as “stimulated”. Also, for the setting “HU-210 100 nM, HCV RNA by qPCR normalised to 18s (FIG. 7)”, the “increase of HCV replication” value is 40%.
